Assay results from patent USRE48711E1, “Apoptosis signal-regulating kinase inhibitors” (Gilead Sciences, Inc., priority 2009, dated 2021).
pIC50: −log10 of the molar value.

What follows are compounds tested against ASK1 (Apoptosis Signal-Regulating Kinase 1) (Homo sapiens (Human), UniProt Q99683) (assay: ASK1 (Apoptosis Signal-Regulating Kinase 1) TR-FRET Kinase Assay (Biochemical IC50)). Settings: not given.
Sequence of ASK1 (Apoptosis Signal-Regulating Kinase 1) (Q99683 649-946): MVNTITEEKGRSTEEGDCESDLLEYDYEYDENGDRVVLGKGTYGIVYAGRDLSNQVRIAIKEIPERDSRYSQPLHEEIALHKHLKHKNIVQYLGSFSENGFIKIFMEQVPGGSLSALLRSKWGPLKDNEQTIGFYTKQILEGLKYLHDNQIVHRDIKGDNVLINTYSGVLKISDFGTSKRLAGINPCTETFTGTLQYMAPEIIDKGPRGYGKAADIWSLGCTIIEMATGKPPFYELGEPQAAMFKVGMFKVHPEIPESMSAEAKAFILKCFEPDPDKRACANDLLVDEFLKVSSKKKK

With `Cc1ccc2c(-c3ccc(C4CC4)nc3)cc(C(=O)Nc3cccc(-c4nncn4C4CC4)c3)nc2c1C` [Example 240, N-(3-(4-cyclopropyl-4H-1,2,4-triazol-3-yl)phenyl)-4-(6-cyclopropylpyridin-3-yl)-7,8-dimethylquinoline-2-carboxamide] the pIC50 was 6.65.

Same assay, conditions: TR-FRET, biotin-MBP substrate, 20 min pre-incubation, ATP added as 300 μM solution

Going from `O=C(Nc1cccc(-c2nncn2CC(F)(F)F)c1)c1cc(-c2cccnc2)ccn1` [Example 58, N-(3-(4-(2,2,2-trifluoroethyl)-4H-1,2,4-triazol-3-yl)phenyl)-3,4′-bipyridine-2′-carboxamide] to `Cn1cnnc1-c1cccc(NC(=O)c2cc(-c3cccnc3)ccn2)c1` [Example 9, N-(3-(4-methyl-4H-1,2,4-triazol-3-yl)phenyl)-3,4′-bipyridine-2′-carboxamide], the pIC50 rises from 6.54 to 7.38 (0.84 log units).

Going from `O=C(Nc1cccc(-c2nncn2CC2CC2)c1)c1cc(-n2cnc(C3CC3)c2)ccn1` [Example 185, 4-(4-cyclopropyl-1H-imidazol-1-yl)-N-(3-(4-(cyclopropylmethyl)-4H-1,2,4-triazol-3-yl)phenyl)picolinamde] to `O=C(Nc1cccc(-c2nncn2C2CC2)c1)c1cc(-n2cnc(Cl)c2)ccn1` [Example 122, 4-(4-chloro-1H-imidazol-1-yl)-N-(3-(4-cyclopropyl-4H-1,2,4-triazol-3-yl)phenyl)picolinamide], the pIC50 rises from 7.47 to 7.77 (0.30 log units). The second is the more potent here.

First: CCCc1ccc(-c2ccnc(C(=O)Nc3cccc(-c4nncn4C4CC4)c3)c2)cn1 [Example 114, N-(3-(4-cyclopropyl-4H-1,2,4-triazol-3-yl)phenyl)-6-propyl-3,4′-bipyridine-2′-carboxamide]
Second: CCNc1ccc(-c2ccnc(C(=O)Nc3cccc(-c4nncn4C4CC4)c3)c2)cn1 [Example 119, N-(3-(4-cyclopropyl-4H-1,2,4-triazo1-3-yl)phenyl)-6-(ethylamino)-3,4′-bipyridine-2′-carboxamide]
The pIC50 of the first is 0.25 log units higher: 8.30 for the first, 8.05 for the second.

`O=C(Nc1cccc(-c2nncn2C2CC2)c1)c1cc(-c2cnc(C3CC3)cn2)ccn1` [Example 133, N-(3-(4-cyclopropyl-4H-1,2,4-triazol-3-yl)phenyl)-4-(5-cyclopropylpyrazin-2-yl)picolinamide] and `O=C(Nc1cccc(-c2nncn2C2CC2)c1)c1cc(-c2cncc(C3CC3)c2)ccn1` [Example 156, 5-cyclopropyl-N-(3-(4-cyclopropyl-4H-1,2,4-triazol-3-yl)phenyl)-3,4′-bipyridine-2′-carboxamide] are within 0.2 log units of each other in pIC50: 8.00 for the first, 7.96 for the second.

Going from `Cc1nc(C2CC2)cn1-c1ccnc(C(=O)Nc2cccc(-c3nncn3C3CC3)n2)c1` [Example 183, 4-(4-cyclopropyl-2-methyl-1H-imidazol-1-yl)-N-(6-(4-cyclopropyl-4H-1,2,4-triazol-3-yl)pyridin-2-yl)picolinamide] to `Cc1cc(-c2ccc(C3CC3)nc2)cc(C(=O)Nc2cccc(-c3nncn3C3CC3)n2)n1` [Example 233, 6-cyclopropyl-N-(6-(4-cyclopropyl-4H-1,2,4-triazol-3-yl)pyridin-2-yl)-6′-methyl-3,4′-bipyridine-2′-carboxamide], the pIC50 falls from 8.10 to 7.85 (0.25 log units). The first is the more potent here.

First: Cc1cc(-c2cccnc2)cc(C(=O)Nc2cccc(-c3nncn3C)c2)n1 [Example 46, 6′-methyl-N-(3-(4-methyl-4H-1,2,4-triazol-3-yl)phenyl)-3,4′-bipyridine-2′-carboxamide]
Second: Cn1cnnc1-c1cccc(NC(=O)c2cc(-c3ccccc3)ccn2)c1 [Example 4, N-(3-(4-methyl-4H-1,2,4-triazol-3-yl)phenyl)-4-phenylpicolinamide]
The pIC50 of the first is 0.52 log units higher: 6.67 for the first, 6.15 for the second.

Going from `O=C(Nc1cccc(-c2nncn2C2CC2)c1)c1cc(-c2cncnc2)ccn1` [Example 24, N-(3-(4-cyclopropyl-4H-1,2,4-triazol-3-yl)phenyl)-4-(pyrimidin-5-yl)picolinamide] to `O=C(Nc1cccc(-c2nncn2C2CCC2)c1)c1cc(-c2cccnc2)ccn1` [Example 39, N-(3-(4-cyclobutyl-4H-1,2,4-triazol-3-yl)phenyl)-3,4′-bipyridine-2′-carboxamide], the pIC50 falls from 7.68 to 7.20 (0.48 log units). The first is the more potent here.

Going from `CC(C)(O)c1ccc(-c2ccnc(C(=O)Nc3cccc(-c4nncn4C4CC4)c3)c2)cn1` [Example 165, N-(3-(4-cyclopropyl-4H-1,2,4-triazol-3-yl)phenyl)-6-(2-hydroxypropan-2-yl)-3,4′-bipyridine-2′-carboxamide] to `CC(C)(C)c1ccc(-c2ccnc(C(=O)Nc3cccc(-c4nncn4C4CC4)c3)c2)cn1` [Example 149, 6-tert-butyl-N-(3-(4-cyclopropyl-4H-1,2,4-triazol-3-yl)phenyl)-3,4′-bipyridine-2′-carboxamide], the pIC50 falls from 8.30 to 7.60 (0.70 log units).

`Cc1ncn(-c2ccnc(C(=O)Nc3cccc(-c4nncn4C4CC4)c3)c2)c1C` [Example 43, N-(3-(4-cyclopropyl-4H-1,2,4-triazol-3-yl)phenyl)-4-(4,5-dimethyl-1H-imidazol-1-yl)picolinamide] and `Cc1ncc(-c2ccnc(C(=O)Nc3cccc(-c4nncn4C4CC4)c3)c2)n1C` [Example 73, N-(3-(4-cyclopropyl-4H-1,2,4-triazol-3-yl)phenyl)-4-(1,2-dimethyl-1H-imidazol-5-yl)picolinamide] are within 0.2 log units of each other in pIC50: 8.10 for the first, 7.96 for the second.

Going from `C[C@@H](c1ccccc1)n1cnnc1-c1cccc(NC(=O)c2cc(-c3ccc(C4CC4)nc3)ccn2)c1` [Example 220, (S)-6-cyclopropyl-N-(3-(4-(1-phenylethyl)-4H-1,2,4-triazol-3-yl)phenyl)-3,4′-bipyridine-2′-carboxamide] to `CC(C)c1ccc(-c2ccnc(C(=O)Nc3cccc(-c4nncn4C4CC4)c3)c2)cn1` [Example 102, N-(3-(4-cyclopropyl-4H-1,2,4-triazol-3-yl)phenyl)-6-isopropyl-3,4′-bipyridine-2′-carboxamide], the pIC50 rises from 7.21 to 8.05 (0.84 log units). The second is the more potent here.

Going from `NS(=O)(=O)c1ccc(-c2ccnc(C(=O)Nc3cccc(-c4nncn4C4CC4)c3)c2)cc1` [Example 97, N-(3-(4-cyclopropyl-4H-1,2,4-triazol-3-yl)phenyl)-4-(4-sulfamoylphenyl)picolinamide] to `O=C(Nc1cccc(-c2nncn2C2CC2)c1)c1cc(-c2cncc(C(F)(F)F)c2)ccn1` [Example 59, N-(3-(4-cyclopropyl-4H-1,2,4-triazol-3-yl)phenyl)-5-(trifluoromethyl)-3,4′-bipyridine-2′-carboxamide], the pIC50 rises from 7.09 to 7.36 (0.27 log units).

`O=C(Nc1cccc(-c2cncn2C2CC2)c1)c1cc(-n2cnc3ccccc32)ccn1` [Example 88, 4-(1H-benzo[d]imidazol-1-yl)-N-(3-(1-cyclopropyl-1H-imidazol-5-yl)phenyl)picolinamide] and `O=C(Nc1cccc(-c2cncn2C2CC2)c1)c1cc(-c2cccnc2)ccn1` [Example 72, N-(3-(1-cyclopropyl-1H-imidazol-5-yl)phenyl)-3,4′-bipyridine-2′-carboxamide] are within 0.2 log units of each other in pIC50: 7.46 for the first, 7.44 for the second.

Going from `CCc1ncc(-c2ccnc(C(=O)Nc3cccc(-c4nncn4C4CC4)c3)c2)cc1Cl` [Example 139, 5-chloro-N-(3-(4-cyclopropyl-4H-1,2,4-triazol-3-yl)phenyl)-6-ethyl-3,4′-bipyridine-2′-carboxamide] to `O=C(Nc1cccc(-c2nncn2C2CC2)c1)c1cc(-c2cnc3c(c2)CNCC3)ccn1` [Example 154, N-(3-(4-cyclopropyl-4H-1,2,4-triazol-3-yl)phenyl)-4-(5,6,7,8-tetrahydro-1,6-naphthyridin-3-yl)picolinamide], the pIC50 falls from 7.80 to 7.47 (0.33 log units). The first is the more potent here.

`O=C(Nc1cccc(-c2nncn2C2CC2)n1)c1cc(N2CCCC(O)C2)ccn1` (stereo not shown) [Example 175, N-(6-(4-cyclopropyl-4H-1,2,4-triazol-3-yl)pyridin-2-yl)-4-(3-hydroxypiperidin-1-yl)picolinamide] and `CC(C)c1cn(-c2ccnc(C(=O)Nc3cccc(-c4nncn4C4CC4)n3)c2)cn1` [Example 167, N-(6-(4-cyclopropyl-4H-1,2,4-triazol-3-yl)pyridin-2-yl)-4-(4-isopropyl-1H-imidazol-1-yl)picolinamide] are within 0.2 log units of each other in pIC50: 8.00 for the first, 8.15 for the second.

`O=C(Nc1cccc(-c2nncn2C2CC2)n1)c1cc(-n2cnc(C(F)(F)F)c2)ccn1` [Example 188, N-(6-(4-cyclopropyl-4H-1,2,4-triazol-3-yl)pyridin-2-yl)-4-(4-(trifluoromethyl)-1H-imidazol-1-yl)picolinamide] and `O=C(Nc1cccc(-c2nncn2C2CC2)c1)c1cc(-n2cnc(C(O)C(F)(F)F)c2)ccn1` (stereo not shown) [Example 206, N-(3-(4-cyclopropyl-4H-1,2,4-triazol-3-yl)phenyl)-4-(4-(2,2,2-trifluoro-1-hydroxyethyl)-1H-imidazol-1-yl)picolinamide] are within 0.2 log units of each other in pIC50: 8.22 for the first, 8.05 for the second.

`CC(O)[C@@H](C)n1cnnc1-c1cccc(NC(=O)c2cc(-c3ccc(C4CC4)nc3)ccn2)n1` (stereo partly drawn) [Example 248, 6-cyclopropyl-N-(6-(4-((2R)-3-hydroxybutan-2-yl)-4H-1,2,4-triazol-3-yl)pyridin-2-yl)-3,4′-bipyridine-2′-carboxamide] and `C[C@H](O)[C@H](C)n1cnnc1-c1cccc(NC(=O)c2cc(-c3ccc(C4CC4)nc3)ccn2)n1` [Example 246, 6-cyclopropyl-N-(6-(4-((2S,3S)-3-hydroxybutan-2-yl)-4H-1,2,4-triazol-3-yl)pyridin-2-yl)-3,4′-bipyridine-2′-carboxamide] are within 0.2 log units of each other in pIC50: 8.15 for the first, 8.22 for the second.

Compared with `Cn1cnnc1-c1cccc(NC(=O)c2cc(N3CCC(N)C3)ccn2)c1` (stereo not shown) [Example 33, 4-(3-aminopyrrolidin-1-yl)-N-(3-(4-methyl-4H-1,2,4-triazol-3-yl)phenyl)picolinamide], `Cc1c(-c2ccnc(C(=O)Nc3cccc(-c4nncn4C4CC4)c3)c2)cnn1C` [Example 90, N-(3-(4-cyclopropyl-4H-1,2,4-triazol-3-yl)phenyl)-4-(1,5-dimethyl-1H-pyrazol-4-yl)picolinamide] is 1.96 log units higher in pIC50: 5.46 for the first, 7.42 for the second. The second is the more potent here.

Compared with `CC(C)n1cnnc1-c1cccc(NC(=O)c2cc(-c3ccc(C4CC4)nc3)ccn2)n1` [Example 176, 6-cyclopropyl-N-(6-(4-isopropyl-4H-1,2,4-triazol-3-yl)pyridin-2-yl)-3,4′-bipyridine-2′-carboxamide], `CCc1ccc(-c2ccnc(C(=O)Nc3ccc(F)c(-c4nncn4C4CC4)c3)c2)cn1` [Example 148, N-(3-(4-cyclopropyl-4H-1,2,4-triazol-3-yl)-4-fluorophenyl)-6-ethyl-3,4′-bipyridine-2′-carboxamide] is 0.64 log units lower in pIC50: 7.89 for the first, 7.25 for the second.
